# Where two headings read alike, the source gives them in different places.
# What was measured:
# [1] = Maximum solubility of alkanediols in water; format: physicochemical; conditions: ambient temperature after 24 h storage at 5° C.; visual observation
# Excerpt: For the determination of the maximum water solubility of an alkanediol, water and different concentrations of the respective alkanediol were blended by stirring. […] The determination of whether the alkanediol has dissolved in water is based entirely on visual observation.
# human sebaceous glands = test: Sebum control: micro-dissected cultured sebaceous glands, lipids normalized upon proteins; format: cell-based; conditions: for sebum reduction: human sebaceous glands cultured six days, compared to untreated control, FIG. 2, single donor
# Method: Additional tests were performed with human sebaceous glands in order to verify the modulatory activity of different 1,2-alkanediols on sebum secretion. Several microbial species on the skin are lipid dependent and feed on the human sebum (e.g., Corynebacterium, Propionibacterium). Accordingly, sebum reduction can indirectly support the reduction of microorganisms on the skin and in this way also indirectly support e.g., dandruff or acne reduction. For these experiments sebaceous glands had been micro-dissected and cultured with medium. The medium without any supplement served as untreated control. The medium with 5 μM Capsaicin served as positive control. Additionally, the culture medium was supplemented with different concentrations of alkanediols. After six days the sebaceous glands were collected and lipids and proteins quantified. The total lipid amount being representative of sebum production was obtained by normalizing the quantified lipids upon the quantified proteins (i.e., mg of lipids/mg of proteins).
# Staphylococcus aureus = test: Minimum Inhibitory Concentration (MIC) test and Kull synergy index; format: cell-based
# Escherichia coli = test: Minimum Inhibitory Concentration (MIC) test; format: cell-based; conditions: single substance (Tables 1, 2)
# Method: (§1) The Minimum Inhibitory Concentration (MIC) test is a test on growth inhibition. The estimation of MICs is executed in 96 well plates. Through the comparison of bacterial growth with positive and negative controls via optical density (OD), different concentrations of given test substances are evaluated. Bacteria were cultivated under adjusted conditions based on information of the German Collection of Microorganisms and Cell Cultures (DSMZ) and stored in 50% glycerol prior to use. Afterwards, the following method was applied: Growth medium (according to microorganism) was added to each well of the microplate. Then, the test-substances were added in different concentrations, positive controls (water controls only with medium) and negative controls (benchmarks according to organism). Finally, the microorganisms were added in a concentration of 10^6 CFU/ml (CFU=colony forming units). The incubation of the microplates was carried out at appropriate conditions. According to the resulting growth, substance concentrations are labelled either as inhibiting or not and MIC is defined as the lowest concentration where a complete growth inhibition is visible. Experiments at concentration limits (highest concentration labelled as growth and lowest concentration labelled as inhibiting) are performed at least twice.
# Corynebacterium jeikeium = test: Minimum Inhibitory Concentration (MIC) test; format: cell-based; conditions: single substance (Tables 1, 2)
# Method: as §1
# Propionibacterium acnes = test: Minimum Inhibitory Concentration (MIC) test; format: cell-based; conditions: Cutibacterium acnes, single substance (Tables 1, 2)
# Method: as §1
# Staphylococcus hominis = test: Minimum Inhibitory Concentration (MIC) test; format: cell-based; conditions: single substance (Tables 1, 2)
# Method: as §1
# Candida albicans = test: Minimum Inhibitory Concentration (MIC) test; format: cell-based; conditions: single substance (Tables 1, 2)
# Method: as §1
# [2] = Table 3, Component B alone, read-out: MIC Component B in ppm
smiles,measurement,setting,value
"CCCCCC(O)CO (stereo not shown) [1,2-Heptanediol, 1,2-heptanediol]",Maximum solubility in water (% by weight),[1],2.5 % by weight
same,sebum reduction,human sebaceous glands,20%
"CCCCC(O)CO (stereo not shown) [1,2-Hexandiol, 1,2-hexanediol]",Maximum solubility in water (% by weight),[1],50 % by weight
"CCCCCCCC(O)CO (stereo not shown) [1,2-Nonanediol, 1,2-nonanediol]",Maximum solubility in water (% by weight),[1],0.1 % by weight
same,MIC Component A in ppm,"Staphylococcus aureus; Table 4, Component A alone",1000 ppm
same,concentration dependency of sebum reduction,"human sebaceous glands; different concentrations, FIG. 3, single donor different from FIG. 2",experimentally confirmed
"CCCCCCC(O)CO (stereo not shown) [1,2-Octandiol, 1,2-octanediol]",Maximum solubility in water (% by weight),[1],0.5 % by weight
"CCCCCCCCCC(O)CO (stereo not shown) [1,2-Undecanediol, 1,2-undecanediol]",MIC,"Staphylococcus aureus; single substance (Tables 1, 2), read-out: Minimum Inhibitory Concentration (MIC)",125 µg/mL
same,sebum reduction,human sebaceous glands,45%
same,MIC,Escherichia coli,250 µg/mL
same,MIC,Corynebacterium jeikeium,250 µg/mL
same,MIC,Propionibacterium acnes,250 µg/mL
same,MIC,Staphylococcus hominis,125 µg/mL
same,MIC,Candida albicans,64 µg/mL
"CCCCC(O)C(C)O (stereo not shown) [2,3-Heptanediol, 2,3-heptanediol]",Maximum solubility in water (% by weight),[1],3.6 % by weight
"CCCCCCC(O)C(C)O (stereo not shown) [2,3-Nonanediol, 2,3-nonanediol]",Maximum solubility in water (% by weight),[1],0.3 % by weight
same,sebum reduction,human sebaceous glands,40%
"CCCCCC(O)C(C)O (stereo not shown) [2,3-Octanediol, 2,3-octanediol]",Maximum solubility in water (% by weight),[1],1.5 % by weight
OCc1ccccc1 [Benzyl Alcohol],MIC,Staphylococcus aureus; [2],5000 µg/mL
same,MIC Component B in ppm,"Staphylococcus aureus; Table 4, Component B alone",5000 ppm
CCCCCCCC(=O)NO [Caprylhydroxamic acid],MIC,Staphylococcus aureus; [2],1000 µg/mL
same,MIC Component B in ppm,"Staphylococcus aureus; Table 4, Component B alone",1000 ppm
CC(C)(C)C(=O)C(Oc1ccc(Cl)cc1)n1ccnc1 (stereo not shown) [Climbazole],MIC,Staphylococcus aureus; [2],250 µg/mL
CCCCC(CC)COCC(O)CO (stereo not shown) [Ethylhexylglycerin],MIC Component B in ppm,"Staphylococcus aureus; Table 3, Component B alone",2000 ppm
CCCCCCCC(=O)OCC(O)CO (stereo not shown) [Glyceryl caprylate],MIC,Staphylococcus aureus; [2],2500 µg/mL

# — patent US20230293409A1, “Compositions Comprising Antimicrobials and (Bio)-Alkanediols for Skin Protection” (Symrise AG, priority 2020, published 2023)
